Key:
[1] = system: monoclonal antibody 9-7-7; test: competitive indirect ELISA (ciELISA) on (XII) coated plates, antibody 9-7-7; assay type: binding
Procedure: (§1) The supernatant culture fluid from the cloned hybridomas also may be screened to select for those producing antibodies having a high affinity for tilmicosin. Affinity may be measured using solid phase immunoassays such as ELISA, RIA, or equilibrium dialysis using labeled tilmicosin. In the preferred embodiment, affinity is measured by competitive indirect ELISA as described in the Examples, and is conducted at a final antibody concentration (dilution from the tissue culture supernatant) to give 50% of maximal binding to a tilmicosin- or 23-deoxo-23-demycinosyl tilmicosin-carrier complex coated substrate or assay well (i.e., the concentration of the antibody that results in 50% of the plateau activity in direct binding ELISA). […] Following incubation and washing, bound antibody in the wells is determined in the same manner as the db-ELISA. Percent inhibition may be calculated as (1−B/Bo)×100, where B is the optical density (OD) of a well with a competitor and Bo is the mean OD of the wells without competitor (control). […]
(§2) The cells which were positive in the initial screening and expanded were analyzed by competitive indirect ELISA (ciELISA) below for inhibition of antibody binding in the presence of free (unconjugated) tilmicosin on (XII) coated antigen plates. […]

[2] = system: monoclonal antibody 47-1-1; test: competitive indirect ELISA (ciELISA) on (XII) coated plates, antibody 47-1-1; assay type: binding
Procedure: as §1, §2

[3] = system: monoclonal antibody 9-1-4 (Til-5); test: competitive indirect ELISA (ciELISA) on (XII) coated plates, antibody 9-1-4; assay type: binding
Procedure: as §1, §2

[4] = system: monoclonal antibody 9-5-3; test: competitive indirect ELISA (ciELISA) on (XII) coated plates, antibody 9-5-3; assay type: binding
Procedure: as §1, §2

[5] = system: monoclonal antibody 37-4-5 (Til-1); test: competitive indirect ELISA (ciELISA) on (XII) coated plates, antibody 37-4-5; assay type: binding
Procedure: as §1, §2

[6] = system: monoclonal antibody 37-2-6; test: competitive indirect ELISA (ciELISA) on (XII) coated plates, antibody 37-2-6; assay type: binding
Procedure: as §1, §2

[7] = bovine lung tissue; after serum levels dropped below therapeutic concentrations; cited from earlier work
[8] = (IC50 of Tilmicosin)/(IC50 of other Compound) X100, — = no cross-reactivity observed

With CC1CNCC(C)C1 (stereo not shown) [3,5-dimethyl piperidine] the “% Competition (percentage of cross-reactivity)” value [1, 8] was 26%, the “IC50, pmol/well” value ([1]; free compound as competitor) was 40.6 pmol/well and the “% Competition (percentage of cross-reactivity)” value [2, 8] was 17%. For the same compound, the “IC50, pmol/well” value ([2]; free compound as competitor) was 44.2 pmol/well, the “% Competition (percentage of cross-reactivity)” value [3, 8] was 18% and the “IC50, pmol/well” value ([3]; free compound as competitor) was 41.5 pmol/well. For the same compound, the “% Competition (percentage of cross-reactivity)” value [4, 8] was 72%, the “IC50, pmol/well” value ([4]; free compound as competitor) was 35.3 pmol/well and the “% Competition (percentage of cross-reactivity)” value [5, 8] was 19%. The “IC50, pmol/well” value ([5]; free compound as competitor) was 61.8 pmol/well, the “% Competition (percentage of cross-reactivity)” value [6, 8] was 24% and the “IC50, pmol/well” value ([6]; free compound as competitor) was 44.2 pmol/well.
For CCC1OC(=O)CC(O)C(C)C(OC2OC(C)C(O)C(N(C)C)C2O)C(CCN2CC(C)CC(C)C2)CC(C)C(=O)C=CC(C)=CC1COC1OC(C)C(O)C(OC)C1OC (stereo not shown) [Tilmicosin], the “time lung concentrations exceed the P. haemolytica MIC after dosage” value [7] is listed as “at least 72 hours”.
